This note sets out measurements from patent publication US20210236605A1, “COMBINATIONS OF OSTEOPONTIN AND 2'-FUCOSYLLACTOSE FOR USE AS MEDICAMENTS” (HEALTH AND HAPPINESS (H&H) HONG KONG LIMITED, priority 2018, published 2021).

In one assay the test system is serum IgE. Briefly: Determination of serum IgE levels (ELISA) in DNCB sensitized mice. The assay is classed as in vivo. The settings on record: day 27, DNCB-sensitized BALB/c mice (DNCB saline group 1025.02±82.68), FIG. 3; combination = high dose, trial 8. The method, then:
(§1) Balb/c mice were purchased from the Animal Center of Southern Medical University (Guangzhou, China). The animals were maintained under a 12-h light/dark cycle in a specific pathogen-free animal facility at a controlled temperature (20-25° C.) and humidity (50±5%). All mice were fed with regular diet and autoclaved water. All animal experiments in this study were approved by the Welfare and Ethical Committee for Experimental Animal Care of Southern Medical University. To induce AD-like symptom, dinitrochlorobenzene (DNCB) solution (dissolved in a 3:1 mixture of acetone and olive oil) was applied to the dorsal skin and ears of mice (female, 6-8 weeks old). One day after complete dorsal hair removal (approximately 4 cm^2), 150 μl of 2% DNCB solution was applied on the dorsal skin, and 10 μl each were applied to the back of both ears at day 1. Four days after sensitization, 0.5% DNCB dissolved in an acetone:olive oil mixture (3:1 vol/vol) is applied to challenge the dorsal skin (150 μl) and the back of both ears (10 μl each) once every two days, (days-27). OPN and 2-FL were dissolved in 0.9% normal saline. […]
Individual mouse serum was collected on the last day of the experiment. Serum levels of IgE were quantified using the commercial enzyme-linked immunosorbent assay (ELISA) kits (Invitrogen, San Diego, USA) according to the manufacturer's instructions. […]

The test system of assay [1] is cytokine mRNA expression in skin (TSLP, IL-4, IL-17, IFN-γ, T-bet, GATA3, ROR-γt). Briefly: Quantitative RT-PCR of cytokine and transcription factor mRNA in dorsal skin of DNCB-treated mice. Type of assay: in vivo, BALB/c mice. The settings on record: dorsal skin / skin lesions, ratio to GAPDH, vs saline-treated/control AD mice. The protocol: Total RNA was isolated from the dorsal skin of the control and treated BALB/c mice. Subsequently, cytokine mRNA expression in the skin sample was measured by RT-PCR.
Balb/c mice were purchased from the Animal Center of Southern Medical University (Guangzhou, China). The animals were maintained under a 12-h light/dark cycle in a specific pathogen-free animal facility at a controlled temperature (20-25° C.) and humidity (50±5%). All mice were fed with regular diet and autoclaved water. All animal experiments in this study were approved by the Welfare and Ethical Committee for Experimental Animal Care of Southern Medical University. […]
Total RNA was isolated from dorsal skin using TRIzol (TransGen Biotech, Beijing, China) according to manufacturer's instruction. 500 ng RNA was quantified for the reverse transcription reaction with TranScript All-in-One First-Strand cDNA Synthesis SuperMix (TransGen Biotech, Beijing, China) in a total volume of 10 μL. Quantitative real-time PCR (RT-PCR) analysis of gene expression was performed using TransStart Green qPCR SuperMix (TransGen Biotech, Beijing, China). […]
FIGS. 5 (a), (b) and (c): Relative mRNA expression levels of Th2-associated cytokines ((a) TSLP and (b) IL-4) and IL17a, as measured by RT-PCR and expressed as a ratio of GAPDH, extracted from BALB/c mice treated with DNCB in the presence and absence of OPN and/or 2FL. *p<0.05, **p<0.01. […]

For assay [2], the system named is scratching behaviour (pruritus) in DNCB-treated BALB/c mice. In words: Assessment of scratching behaviour in DNCB-treated BALB/c mice. Conditions: oral administration, FIG. 2, combination esp. trials 7 & 8. Type of assay: in vivo. The method, then: as §1, with “(days-27).” for “(days-27). OPN and 2-FL were dissolved in 0.9% normal saline.”
Mice were placed into cages for 1 h for habituation. After habituation, the number of scratching episodes for 15 min was counted macroscopically. A series of scratching movements made with the paw was counted as one scratching episode. The total scratching behaviour number was calculated within 15 min. […]

For assay [3], the system named is DNCB-induced AD-like symptoms in BALB/c mice. In words: Evaluation of AD score / AD-like symptoms in DNCB-induced BALB/c AD model. Conditions: for severity of DNCB-induced AD-like symptoms: BALB/c mice, OPN 37.5 or 2.7 mg/kg(bw)/day, 2-FL 600 or 75 mg/kg(bw)/day, compared with saline-supplemented mice; for AD score (dermatitis score, AD-like symptoms): oral administration, DNCB-treated BALB/c mice, FIG. 1, combinations esp. trials 7 and 8 (high OPN). The assay is classed as in vivo. An excerpt: To investigate the potential therapeutic effect of OPN or 2-FL or an OPN/2FL combination on inflammation and emergence of atopic dermatitis (AD), BALB/c AD model was established by topical application of DNCB on each ear and the dorsal skin. Edema, excoriation, erythema, and scarring were apparent on the skin of DNCB sensitized mice after multiple challenged of DNCB. Strikingly, the severity of DNCB-induced AD-like symptoms in BALB/c mice was ameliorated upon supplementation with OPN (37.5 or 2.7 mg/kg(bw) day) and 2-FL (600 or 75 mg/kg(bw)·day) compared with saline-supplemented mice. Pruritus is an essential feature of AD. The scratching behaviour has already been established as an objective indicator to evaluate pruritus in animal model.
Balb/c mice were purchased from the Animal Center of Southern Medical University (Guangzhou, China). The animals were maintained under a 12-h light/dark cycle in a specific pathogen-free animal facility at a controlled temperature (20-25° C.) and humidity (50±5%). All mice were fed with regular diet and autoclaved water. All animal experiments in this study were approved by the Welfare and Ethical Committee for Experimental Animal Care of Southern Medical University. To induce AD-like symptom, dinitrochlorobenzene (DNCB) solution (dissolved in a 3:1 mixture of acetone and olive oil) was applied to the dorsal skin and ears of mice (female, 6-8 weeks old). One day after complete dorsal hair removal (approximately 4 cm^2), 150 μl of 2% DNCB solution was applied on the dorsal skin, and 10 μl each were applied to the back of both ears at day 1. Four days after sensitization, 0.5% DNCB dissolved in an acetone:olive oil mixture (3:1 vol/vol) is applied to challenge the dorsal skin (150 μl) and the back of both ears (10 μl each) once every two days, (days-27). OPN and 2-FL were dissolved in 0.9% normal saline. Mice treated with DNCB are intragastrically administered with 2-FL, OPN or 2-FL plus OPN from day 0 to day 27. The mice in the vehicle and another DNCB groups are given an equal volume of physiological saline.
The severity of dorsal skin lesions were assessed macroscopically according to the following four symptoms: edema, erythema/hemorrhage, excoriation/erosion, and scarring/dryness, and the sum of the individual scores (0, no symptoms; 1, mild; 2, moderate; 3, severe), ranging from 0 to 12, was defined as the final dermatitis scores. These visual assessments were performed every two day and by at least two independent investigators.
FIG. 1: OPN and 2-FL alleviation of AD-like symptoms induced—as per dermatitis score evaluation—by DNCB in BALB/c mice. […]

On to osteopontin [OPN], for which the “serum IgE concentration” value in the assay on serum IgE was determined as 388.22 ± 61.28 µg/mL. Further, the “IL-17 mRNA expression in skin” value in assay [1] is reported as “significantly lower”. Also, the “scratching behaviour (number of scratching episodes for 15 min)” value in assay [2] is “reduced scratching behaviour”. In assay [3], the “severity of DNCB-induced AD-like symptoms” value is listed as “ameliorated” and the “AD score (dermatitis score, AD-like symptoms)” value is on record as “reduced substantially”.

Consider 2′-fucosyllactose [2-FL], for which the “serum IgE concentration” value with serum IgE is 621.27 ± 46.79 µg/mL. In assay [1], the “IL-17 mRNA expression in skin” value is “significantly lower”. Moreover, the “scratching behaviour (number of scratching episodes for 15 min)” value in assay [2] is on record as “reduced scratching behaviour”. In assay [3], the “severity of DNCB-induced AD-like symptoms” value is “ameliorated” and the “AD score (dermatitis score, AD-like symptoms)” value is reported as “reduced substantially”.
